Experimental findings from patent US20230091225A1, “Bifunctional chimeric heterocyclic compounds for targeted degradation of androgen receptors and use thereof” (HINOVA PHARMACEUTICALS INC., priority 2019, published 2023) are described below.

Like-named read-outs stand apart in the source and are kept apart here.

Experiment [1] concerns the target T1, androgen receptor (AR) (Homo sapiens, UniProt P10275).
T1 sequence (P10275 1-920): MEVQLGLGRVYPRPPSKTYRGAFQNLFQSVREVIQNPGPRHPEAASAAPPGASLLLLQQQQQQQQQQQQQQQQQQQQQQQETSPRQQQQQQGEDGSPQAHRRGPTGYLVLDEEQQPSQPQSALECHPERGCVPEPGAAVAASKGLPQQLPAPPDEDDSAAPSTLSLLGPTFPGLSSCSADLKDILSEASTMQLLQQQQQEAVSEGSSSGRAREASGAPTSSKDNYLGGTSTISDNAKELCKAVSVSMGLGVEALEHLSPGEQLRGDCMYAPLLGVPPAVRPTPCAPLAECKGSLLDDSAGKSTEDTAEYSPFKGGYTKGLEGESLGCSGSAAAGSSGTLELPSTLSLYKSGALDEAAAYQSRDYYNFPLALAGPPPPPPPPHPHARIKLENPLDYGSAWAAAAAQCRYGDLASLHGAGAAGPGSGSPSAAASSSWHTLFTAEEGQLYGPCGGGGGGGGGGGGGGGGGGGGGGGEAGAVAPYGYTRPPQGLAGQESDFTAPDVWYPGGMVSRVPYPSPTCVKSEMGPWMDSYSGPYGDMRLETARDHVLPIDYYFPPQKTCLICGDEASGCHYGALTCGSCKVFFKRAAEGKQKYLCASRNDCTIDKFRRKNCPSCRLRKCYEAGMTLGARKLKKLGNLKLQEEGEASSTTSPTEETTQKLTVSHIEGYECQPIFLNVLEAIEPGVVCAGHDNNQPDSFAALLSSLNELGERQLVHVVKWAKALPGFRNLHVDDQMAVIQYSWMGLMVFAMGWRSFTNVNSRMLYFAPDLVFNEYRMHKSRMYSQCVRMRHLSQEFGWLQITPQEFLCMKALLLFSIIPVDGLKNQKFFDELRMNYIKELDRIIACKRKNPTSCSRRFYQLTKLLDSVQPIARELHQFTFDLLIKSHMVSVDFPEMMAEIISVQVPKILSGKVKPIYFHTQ
The experiment is described as follows: Degradation of androgen receptor (AR) protein in VCaP cells by Western blot. Format: cell-based. To be noted: percentage of degraded AR at 100 nM, VCaP cells, 16 h. The procedure: Determination of the Degradation Activity of the Compound on Androgen Receptor (AR) Protein by Western Blot
1) VCaP cells were subcultured in cell culture media, and then the cells in good growth condition were seeded in a 12-well plate at 1 ml/well (5×10^5 cells/well), and cultured overnight in a 37° C., 5% CO2 cell incubator. 2) The test compound was prepared into a 10 mM stock solution with dimethyl sulfoxide (DMSO). Prior to use, the solution was diluted 3 times with DMSO. […] of the diluted compound solution was added to the cell culture well (ensuring that the DMSO concentration in the culture system was 0.1%), and two wells were set for each concentration. The plate was gently shaken to mix. In addition, the experiment included negative control wells (containing equal amount of DMSO) and positive control wells. 3) After culturing 16 h. the cells were lysed with RIPA cell lysate, and the protein was extracted. The protein concentration was measured with BCA kit. 5-fold concentrated protein loading buffer was added, and after heated at 100° C. for 5 min. the sample was stored at −20° C. 4) for each well, 30 μg of protein was loaded on polyacrylamide gel for electrophoresis. 5) The protein was transferred from polyacrylamide gel to PVDF membrane, and then 5% skim milk was added to close for 1 h at room temperature. The first antibody (Androgen Receptor (D6F11) XP Rabbit mAb and Anti-β-Actin Rabbit mAb) was added and incubated overnight at 4° C. The membrane was washed with TBST solution three times. 10 min for each time. The secondary antibody (horseradish peroxidase labeled goat […]) was added and incubated at room temperature for 2 h, and then the membrane was washed with TBST solution three times. 10 min for each time.
Finally, ECL chemiluminescence solution was added, and then photos were taken with automatic chemiluminescence instrument to collect pictures for analysis.

Experiment [2] has as its target T1, androgen receptor (AR). Nature of the experiment: Degradation of androgen receptor (AR) protein in VCaP cells by ELISA. The conditions noted are these: for Dmax: VCaP. Format: cell-based.
The mark [3] stands for this setting: AR degradation, VCaP cells, 16 h, ELISA, Table 3-2, read-out: DC50.
[4] abbreviates: AR degradation, VCaP cells, 16 h, ELISA, Table 3-2, read-out: Dmax (%).

`N#Cc1ccc(O[C@H]2CC[C@H](NC(=O)c3ccc(N4CCC(CN5CCCN(c6ccc7c(c6)C(=O)N(C6CCC(=O)NC6=O)C7=O)CC5)CC4)cc3)CC2)cc1Cl` (stereo partly drawn) [Compound 58, N-((1R,4R)-4-(3-chloro-4-cyanophenoxy)cyclohexyl)-4-(4-((4-(2-(2,6-dioxopiperidin-3-yl)-1,3-dioxoisoindolin-5-yl)-1,4-diazepan-1-yl)methyl)piperidin-1-yl)benzamide] showed an inhibition at 0.1 µM in experiment [1] of 25 to 49%.

As to `N#Cc1ccc(O[C@H]2CC[C@H](NC(=O)c3ccc(N4CCC(N5CC6(CCN(c7cc8c(cc7F)C(=O)N(C7CCC(=O)NC7=O)C8=O)CC6)C5)CC4)nn3)CC2)cc1Cl` (stereo partly drawn) [Compound 61, N-((1R,4R)-4-(3-chloro-4-cyanophenoxy)cyclohexyl)-6-(4-(7-(2-(2,6-dioxopiperidin-3-yl)-6-fluoro-1,3-dioxoisoindolin-5-yl)-2,7-diazaspiro[3.5]nonyl-2-yl)piperidin-1-yl)pyridazine-3-carboxamide], the inhibition at 0.1 µM in experiment [1] is greater than 80%.

`N#Cc1ccc(O[C@H]2CC[C@H](NC(=O)c3ccc(N4CCC(N5CC6CN(c7ccc8c(c7)C(=O)N(C7CCC(=O)NC7=O)C8=O)CC6C5)CC4)nn3)CC2)cc1Cl` (some centres unmarked) [Compound 62, N-((1r,4r)-4-(3-chloro-4-cyanophenoxy)cyclohexyl)-6-(4-(5-(2-(2,6-dioxopiperidin-3-yl)-1,3-dioxoisoindolin-5-yl)hexahydropyrrolo[3,4-c]pyrrol-2(1H)-yl)piperidin-1-yl)pyridazine-3-carboxamide] displayed an inhibition at 0.1 µM in experiment [1] of 50 to 79%.

For `CC1(C)[C@H](Oc2ccc(C#N)c(Br)c2)C(C)(C)[C@H]1N1Cc2nc(C#C[C@H]3CC[C@H](N4CCN(c5cc6c(cc5F)C(=O)N(C5CCC(=O)NC5=O)C6=O)CC4)CC3)ccc2C1=O` (some centres unmarked) [Compound 397], in experiment [2] (setting [3]), the DC50 was in the range of 0.01 to 0.1 µM. For the same compound, the Dmax in experiment [2] (setting [4]) is greater than 80%.

Consider `CC1(C)[C@H](Oc2ccc(C#N)c(Br)c2)C(C)(C)[C@H]1N1Cc2nc(C#C[C@H]3CC[C@H](N4CCN(c5ccc6c(c5)C(=O)N(C5CCC(=O)NC5=O)C6=O)CC4)CC3)ccc2C1=O` (some centres unmarked) [Compound 398], for which the DC50 in experiment [2] (setting [3]) fell in the range of 0.01 to 0.1 µM. Moreover, the Dmax in experiment [2] (setting [4]) was greater than 80%.

For `COc1cc(O[C@H]2C(C)(C)[C@H](N3Cc4nc(C#C[C@H]5CC[C@H](N6CCN(c7cc8c(cc7F)C(=O)N(C7CCC(=O)NC7=O)C8=O)CC6)CC5)ccc4C3=O)C2(C)C)ccc1C#N` (some centres unmarked) [Compound 399], in experiment [2] (setting [3]), the DC50 is less than 0.01 µM. Moreover, the Dmax in experiment [2] (setting [4]) was greater than 80%.

With `Cc1cc(O[C@H]2C(C)(C)[C@H](N3Cc4nc(C#C[C@H]5CC[C@H](N6CCN(c7cc8c(cc7F)C(=O)N(C7CCC(=O)NC7=O)C8=O)CC6)CC5)ccc4C3=O)C2(C)C)ccc1C#N` (some centres unmarked) [Compound 401], the DC50 in experiment [2] (setting [3]) lay in the range of 0.01 to 0.1 µM. This compound showed a maximal degradation (Dmax) in experiment [2] greater than 80%.

Take `Cc1cc(O[C@H]2C(C)(C)[C@H](N3Cc4nc(C#C[C@H]5CC[C@H](N6CCN(c7ccc8c(c7)C(=O)N(C7CCC(=O)NC7=O)C8=O)CC6)CC5)ccc4C3=O)C2(C)C)ccc1C#N` (some centres unmarked) [Compound 402]: in experiment [2], the DC50 was less than 0.01 µM and the Dmax is greater than 80%.

With `N#Cc1ccc(O[C@H]2CC[C@H](NC(=O)c3nc(N4CCC(CN5CCC6(CC5)CN(c5ccc7c(c5)C(=O)N(C5CCC(=O)NC5=O)C7=O)C6)CC4)no3)CC2)cc1Cl` (some centres unmarked) [Compound 413], in experiment [2], the DC50 was less than 0.01 µM and the Dmax was greater than 80%.

Regarding `N#Cc1ccc(O[C@H]2CC[C@H](NC(=O)c3nnc(N4CCC(CN5CCC6(CC5)CN(c5ccc7c(c5)C(=O)N(C5CCC(=O)NC5=O)C7=O)C6)CC4)o3)CC2)cc1Cl` (some centres unmarked) [Compound 414], the DC50 in experiment [2] (setting [3]) is less than 0.01 µM. The Dmax in experiment [2] (setting [4]) was greater than 80%.

In experiment [2], `N#Cc1ccc(O[C@H]2CC[C@H](NC(=O)c3noc(N4CCC(CN5CCC6(CC5)CN(c5ccc7c(c5)C(=O)N(C5CCC(=O)NC5=O)C7=O)C6)CC4)n3)CC2)cc1Cl` (some centres unmarked) [Compound 415] had a DC50 of less than 0.01 µM and a Dmax greater than 80%.

Turning to `N#Cc1ccc(O[C@H]2CC[C@H](NC(=O)c3ccn([C@H]4CC[C@H](CN5CCC6(CC5)CN(c5ccc7c(c5)C(=O)N(C5CCC(=O)NC5=O)C7=O)C6)CC4)n3)CC2)cc1Cl` (stereo partly drawn) [Compound 416, N-((1r,4R)-4-(3-chloro-4-cyanophenoxy)cyclohexyl)-1-((1r,4R)-4-((2-(2-(2,6-dioxopiperidin-3-yl)-1,3-dioxoisoindolin-5-yl)-2,7-diazaspiro[3.5]nonan-7-yl)methyl)cyclohexyl)-1H-pyrazole-3-formamide], in experiment [2] (setting [3]), the DC50 was less than 0.01 µM. Also, in experiment [2] (setting [4]), the Dmax is greater than 80%.

For `N#Cc1ccc(O[C@H]2CC[C@H](NC(=O)c3cnc(N4CCC(CN5CCC6(CC5)CN(c5cc7c(cc5F)C(=O)N(C5CCC(=O)NC5=O)C7)C6)CC4)nn3)CC2)cc1Cl` (some centres unmarked) [Compound 417], the DC50 in experiment [2] (setting [3]) is less than 0.01 µM. Further, the Dmax in experiment [2] (setting [4]) was greater than 80%.

For the compound `N#Cc1ccc(O[C@H]2CC[C@H](NC(=O)c3cnc(N4CCC(CN5CCC6(CC5)CN(c5ccc7c(c5)C(=O)N(C5CCC(=O)NC5=O)C7=O)C6)CC4)nn3)CC2)cc1Br` (some centres unmarked) [Compound 419], the “Dmax (%)” value in experiment [2] is on record as “++++ (key: A: >80%; B: 79%-50%; C: 49%-25%; D: <25%)”. Besides, the DC50 in experiment [2] (read-out: DC50) was less than 0.01 µM.

`N#Cc1ccc(O[C@H]2CC[C@H](NC(=O)c3cnc(N4CCC(CN5CCC6(CC5)CN(c5ccc7c(c5)C(=O)N(C5CCC(=O)NC5=O)C7=O)C6)CC4)nn3)CC2)cc1C(F)(F)F` (some centres unmarked) [Compound 420, N-((1r,4r)-4-(4-cyano-3-trifluoromethyl-phenoxy)cyclohexyl)-3-(4-((2-(2-(2,6-dioxopiperidin-3-yl)-1,3-dioxoisoindolin-5-yl)-2,7-diazaspiro[3.5]nonane-7-yl)methyl)piperidin-1-yl)-1,2,4-triazine-6-formamide]: the DC50 in experiment [2] (setting [3]) was less than 0.01 µM. In addition, in experiment [2] (setting [4]), the Dmax is greater than 80%.

Consider `[2H]C([2H])([2H])Oc1cc(O[C@H]2C(C)(C)[C@H](N3Cc4nc(C#C[C@H]5CC[C@H](N6CCN(c7ccc8c(c7)C(=O)N(C7CCC(=O)NC7=O)C8=O)CC6)CC5)ccc4C3=O)C2(C)C)ccc1C#N` (some centres unmarked) [Compound 429], for which the DC50 in experiment [2] (setting [3]) was less than 0.01 µM. In addition, in experiment [2] (setting [4]), the Dmax was greater than 80%.

For `CCOc1cc(O[C@H]2C(C)(C)[C@H](N3Cc4nc(C#C[C@H]5CC[C@H](N6CCN(c7ccc8c(c7)C(=O)N(C7CCC(=O)NC7=O)C8=O)CC6)CC5)ccc4C3=O)C2(C)C)ccc1C#N` (some centres unmarked) [Compound 430], the DC50 in experiment [2] (setting [3]) fell in the range of 0.1 to 0.3 µM. The maximal degradation (Dmax) in experiment [2] (setting [4]) was 60 to 80%.

With “N-((1r,4r)-4-(3-chloro-4-cyanophenoxy)cyclohexyl)-6-(2-((1-(2,6-dioxopiperidin-3-yl)-6-fluoro-1,3-dioxoisoindolin-5-yl)piperidine-4-yl)methyl)-2,7-diazaspiro[(3.5]nonan-7-yl)-N-(methyl-d3)pyridazine-3-formamide [Compound 91]”, the “Dmax (%)” value in experiment [2] is “+ (key: ++++: >80%; +++: 80%-60%; ++: 60%-40%; +: <40%)”. Moreover, the DC50 in experiment [2] (read-out: DC50) was greater than 0.3 µM.

With “N-((1r,4r)-4-(3-chloro-4-cyanophenoxy)cyclohexyl)-6-(4-((6-(2-(2,6-dioxopiperidin-3-yl)-6-fluoro-1,3-dioxoisoindolin-5-yl)-2,6-diazaspiro[3.3]heptan-2-yl)methyl)piperidin-1-yl)pyrazine-2-amide [Compound 123]”, the “Dmax (%)” value in experiment [2] was “++++ (key: A: >80%; B: 79%-50%; C: 49%-25%; D: <25%)”. The DC50 in experiment [2] (read-out: DC50) is less than 0.01 µM.
